The values that follow come from patent US20210094955A1, “SALT AND CRYSTAL OF TRIAZOLOPYRAZINE DERIVATIVE” (priority 2017, published 2021).

Data set [1] in a line: Solubility test, Test Method 1 (sample approx. 150 μg/mL, shaken 10 minutes at room temperature, filtrate quantified by HPLC). Type of data set: physicochemical. The note with it: approx. 150 μg/mL added, in terms of free form. The protocol:
Test Method of Free Form, Hydrochloride, Hydrobromide, Sulfate, Methanesulfonate, and Benzenesulfonate […] In order to uniformly disperse the sample in the dissolving solution, the sample was irradiated with ultrasonic waves in a water tank for a short time, and then vigorously shaken at room temperature for 10 minutes using a shaker SA-31 manufactured by Yamato Scientific Co., Ltd. The solution after shaken was filtered with a filter, and a concentrations of the compound in filtrate was quantified by HPLC. The following was used as the dissolving solution. […] JP2 (Japanese Pharmacopoeia 2nd Fluid for disintegration test): manufactured by Nacalai Tesque Inc. JP2+TC: Add sodium taurocholate to Japanese Pharmacopoeia 2nd Fluid for disintegration test to obtain a concentration of 15 mM. FaSSIF (artificial intestinal fluid (fasted state)): […] FeSSIF (artificial intestinal fluid (fed state)): […] Measurement conditions of free form, hydrochloride, hydrobromide, sulfate, methanesulfonate, and benzenesulfonate) Equipment: LC-1260 manufactured by Agilent Technologies Mobile phase: A: 0.01 M aqueous solution of ammonium acetate, B: 0.01 M methanol solution of ammonium acetate Flow rate: 0.3 mL/min Column: Develosil Combi-RP-5 5 μm (2.0 mm×50 mm) Column temperature: 40° C. […] Ex indicates Example Number to be described later.

Data set [2] can be described thus: Solubility test, Test Method 2 (sample approx. 300 μg/mL, shaken 10 minutes at room temperature, filtrate quantified by HPLC). The data set is classed as physicochemical. The note with it: approx. 300 μg/mL added, in terms of free form. The protocol:
JP1 (Japanese Pharmacopoeia 1st Fluid for disintegration test): manufactured by Nacalai Tesque Inc.
JP2 (Japanese Pharmacopoeia 2nd Fluid for disintegration test): manufactured by Nacalai Tesque Inc.
JP2+TC: Add sodium taurocholate to Japanese Pharmacopoeia 2nd Fluid for disintegration test to obtain a concentration of 15 mM.
FaSSIF (artificial intestinal fluid (fasted state)): To 1 L of water, 3 mmol of sodium taurocholate, 0.75 mmol of lecithin, 3.9 g of potassium dihydrogen phosphate, and 7.7 g of potassium chloride are added, and a pH thereof is adjusted to approximately 6.5 using sodium hydroxide.
FeSSIF (artificial intestinal fluid (fed state)): To 1 L of water, 15 mmol of sodium taurocholate, 3.75 mmol of lecithin, 8.65 g of acetic acid, and 15.2 g of potassium chloride are added, and a pH is adjusted to approximately 5.0 using sodium hydroxide.
Test Method 2: Test Method for p-Toluenesulfonate and 1-Hydroxy-2-Naphthoate
Into a 10 mL centrifuge tube, 1 to 1.3 mg of a sample was weighed, and each dissolving solution (see below) was added thereto to be approximately 300 μg/mL. In order to uniformly disperse the sample in the dissolving solution, the sample was irradiated with ultrasonic waves in a water tank for a short time, and then vigorously shaken at room temperature for 10 minutes using a shaker SA-31 manufactured by Yamato Scientific Co., Ltd. The solution after shaken was filtered with a filter, and a concentration of the compound in filtrate was quantified by HPLC. The same dissolving solution as in Test Method 1 was used.
(Measurement condition 2 using HPLC: Measurement conditions of p-toluenesulfonate and 1-hydroxy-2-naphthoate)
Equipment: LC-1260 manufactured by Agilent Technologies
Mobile phase: A: 0.1% aqueous perchloric acid, B: methanol
Column: YMC-Triart C18 S-3 μm (2.0 mm×50 mm)
Column temperature: 40° C.
Detection wavelength: 254 nm
Ex indicates Example Number to be described later.

The mark [3] stands for this setting: pH 1.2, simulated gastric fluid, thermodynamic from solid, JP1 (Japanese Pharmacopoeia 1st Fluid for disintegration test), 10 minutes shaking, read-out: Solubility JP1.
The mark [4] stands for this setting: pH 5, thermodynamic from solid, FeSSIF (artificial intestinal fluid, fed state), pH approx. 5.0, 10 minutes shaking, read-out: Solubility FeSSIF.
[5] abbreviates: pH 6.5, thermodynamic from solid, FaSSIF (artificial intestinal fluid, fasted state), pH approx. 6.5, 10 minutes shaking, read-out: Solubility FaSSIF.
Where [6] appears, read: pH 6.8, aqueous buffer, thermodynamic from solid, JP2 (Japanese Pharmacopoeia 2nd Fluid for disintegration test), 10 minutes shaking, read-out: Solubility JP2.
The mark [7] stands for this setting: pH 6.8, fassgf or other biorelevant, thermodynamic from solid, JP2 with 15 mM sodium taurocholate, 10 minutes shaking, read-out: Solubility JP2 + TC.

The structures appear in SMILES notation. ≈ marks a conversion by molar mass, not a printed value.

The solubility is the concentration that dissolves in the medium under given conditions. As to `Cc1nsc(-c2nnc3n2CCN(C(=O)c2ccc(F)cc2)[C@@H]3C)n1.O=S(=O)(O)O` [Example 3, (4-fluorophenyl)[(8R)-8-methyl-3-(3-methyl-1,2,4-thiadiazol-5-yl)-5,6-dihydro[1,2,4]triazolo[4,3-a]pyrazin-7(8H)-yl]methanone sulfate], the solubility at 10 min in data set [1] (setting [3]), in data set [1] (setting [4]), in data set [1] (setting [5]), in data set [1] (setting [6]) and in data set [1] (setting [7]) was greater than 0.1 mg/mL in each case.

Turning to `Cc1nsc(-c2nnc3n2CCN(C(=O)c2ccc(F)cc2)[C@@H]3C)n1.O=S(=O)(O)c1ccccc1` [Example 7, (4-fluorophenyl)[(8R)-8-methyl-3-(3-methyl-1,2,4-thiadiazol-5-yl)-5,6-dihydro[1,2,4]triazolo[4,3-a]pyrazin-7(8H)-yl]methanone benzenesulfonate], the solubility at 10 min in data set [1] (setting [3]), in data set [1] (setting [4]), in data set [1] (setting [5]), in data set [1] (setting [6]) and in data set [1] (setting [7]) was greater than 0.1 mg/mL throughout.

`Cc1ccc(S(=O)(=O)O)cc1.Cc1nsc(-c2nnc3n2CCN(C(=O)c2ccc(F)cc2)[C@@H]3C)n1` [Example 5, (4-fluorophenyl)[(8R)-8-methyl-3-(3-methyl-1,2,4-thiadiazol-5-yl)-5,6-dihydro[1,2,4]triazolo[4,3-a]pyrazin-7(8H)-yl]methanone p-toluenesulfonate]: the solubility at 10 min in data set [2] (setting [3]) is greater than 0.1 mg/mL; in data set [2] (setting [4]), greater than 0.1 mg/mL; in data set [2] (setting [5]), greater than 0.1 mg/mL; in data set [2] (pH 6.8, fassgf or other biorelevant, thermodynamic from solid, JP2 (Japanese Pharmacopoeia 2nd Fluid for disintegration test), 10 minutes shaking, read-out: Solubility JP2) it was greater than 0.1 mg/mL; in data set [2] (setting [7]) it was greater than 0.1 mg/mL.

Regarding `Br.Cc1nsc(-c2nnc3n2CCN(C(=O)c2ccc(F)cc2)[C@@H]3C)n1` [Example 2, (4-fluorophenyl)[(8R)-8-methyl-3-(3-methyl-1,2,4-thiadiazol-5-yl)-5,6-dihydro[1,2,4]triazolo[4,3-a]pyrazin-7(8H)-yl]methanone hydrobromide], the solubility at 10 min in data set [1] (setting [3]), in data set [1] (setting [4]), in data set [1] (setting [5]), in data set [1] (setting [6]) and in data set [1] (setting [7]) was greater than 0.1 mg/mL in each case.

For `Cc1nsc(-c2nnc3n2CCN(C(=O)c2ccc(F)cc2)[C@@H]3C)n1.O=C(O)c1ccc2ccccc2c1O` [Example 8, (4-fluorophenyl)[(8R)-8-methyl-3-(3-methyl-1,2,4-thiadiazol-5-yl)-5,6-dihydro[1,2,4]triazolo[4,3-a]pyrazin-7(8H)-yl]methanone 1-hydroxy-2-naphthoate], the “Solubility FaSSIF” value in data set [2] (FaSSIF (artificial intestinal fluid, fasted state), pH approx. 6.5, 10 minutes shaking) was greater than 0.1 mg/mL. Besides, the “Solubility FeSSIF” value in data set [2] (FeSSIF (artificial intestinal fluid, fed state), pH approx. 5.0, 10 minutes shaking) was greater than 0.1 mg/mL. Moreover, in data set [2] (JP1 (Japanese Pharmacopoeia 1st Fluid for disintegration test), 10 minutes shaking), the “Solubility JP1” value was determined as 0.0589 mg/mL. For the same compound, in data set [2] (JP2 (Japanese Pharmacopoeia 2nd Fluid for disintegration test), 10 minutes shaking), the “Solubility JP2” value was greater than 0.1 mg/mL. Besides, in data set [2] (JP2 with 15 mM sodium taurocholate, 10 minutes shaking), the “Solubility JP2 + TC” value was greater than 0.1 mg/mL.

`Cc1nsc(-c2nnc3n2CCN(C(=O)c2ccc(F)cc2)[C@@H]3C)n1.Cl` [Example 1, (4-fluorophenyl)[(8R)-8-methyl-3-(3-methyl-1,2,4-thiadiazol-5-yl)-5,6-dihydro[1,2,4]triazolo[4,3-a]pyrazin-7(8H)-yl]methanone hydrochloride]: the solubility at 10 min in data set [1] (setting [3]), in data set [1] (setting [4]), in data set [1] (setting [5]), in data set [1] (setting [6]) and in data set [1] (setting [7]) was greater than 0.1 mg/mL each time.

For the compound `Cc1nsc(-c2nnc3n2CCN(C(=O)c2ccc(F)cc2)[C@@H]3C)n1` [Compound A, (4-fluorophenyl)[(8R)-8-methyl-3-(3-methyl-1,2,4-thiadiazol-5-yl)-5,6-dihydro[1,2,4]triazolo[4,3-a]pyrazin-7(8H)-yl]methanone, reference compound], the solubility at 10 min in data set [1] (setting [3]) was 0.0666 mg/mL (≈ 186 µM); in data set [1] (setting [4]), 0.0319 mg/mL (≈ 89 µM); in data set [1] (setting [5]) it was 0.0365 mg/mL (≈ 102 µM); in data set [1] (setting [6]) it was 0.0654 mg/mL (≈ 182 µM); in data set [1] (setting [7]), 0.0829 mg/mL.

For the compound `CS(=O)(=O)O.Cc1nsc(-c2nnc3n2CCN(C(=O)c2ccc(F)cc2)[C@@H]3C)n1` [Example 6, (4-fluorophenyl)[(8R)-8-methyl-3-(3-methyl-1,2,4-thiadiazol-5-yl)-5,6-dihydro[1,2,4]triazolo[4,3-a]pyrazin-7(8H)-yl]methanone methanesulfonate], the solubility at 10 min in data set [1] (setting [3]), in data set [1] (setting [4]), in data set [1] (setting [5]), in data set [1] (setting [6]) and in data set [1] (setting [7]) was greater than 0.1 mg/mL throughout.
